Assays:
[1] = Tmax in Wistar rat at 5 mg/kg, po; format: ADME, organism-based; conditions: in vivo
[2] = Selectivity index, ratio of CC50 for human MT-4 cells to EC50 for HIV-1 infected in MT-4 cells; format: toxicity, cell-based; conditions: read-out: Ratio CC50/EC50
[3] = molecular target: Human immunodeficiency virus type 1 reverse transcriptase (Human immunodeficiency virus 1, UniProt Q72547, L100I); assay: Inhibition of HIV-1 p66/p51 reverse transcriptase L100I mutant incubated for 40 mins by picogreen dye-based spectrofluorometric analysis
[4] = AUC in Wistar rat at 5 mg/kg, po; format: ADME, organism-based; set-up: dose 5 mg/kg; conditions: in vivo
[5] = Toxicity in pregnant mouse assessed as lung damage at 2 g/kg, ig monitored for 2 weeks by HE staining based assay; format: tissue-based; conditions: in vivo, po, 2000 mg/kg, 336 h
[6] = molecular target: Human immunodeficiency virus type 1 reverse transcriptase (Human immunodeficiency virus 1, UniProt Q72547); assay: Inhibition of recombinant wild type p66/p51 HIV1 reverse transcriptase incubated for 40 mins by picogreen dye-based spectrofluorometric analysis
[7] = Acute toxicity in pregnant mouse assessed as death at 2 g/kg, ig; conditions: in vivo, po, 2000 mg/kg
[8] = Toxicity in healthy female mouse assessed as spleen damage at 2 g/kg, ig monitored for 2 weeks by HE staining based assay; format: tissue-based; conditions: in vivo, po, 2000 mg/kg, 336 h
[9] = AUC in Wistar rat at 1 mg/kg, iv; format: ADME, organism-based; set-up: dose 1 mg/kg; conditions: in vivo
[10] = Toxicity in pregnant mouse assessed as spleen damage at 2 g/kg, ig monitored for 2 weeks by HE staining based assay; format: tissue-based; conditions: in vivo, po, 2000 mg/kg, 336 h
[11] = Acute toxicity in pregnant mouse assessed as offspring survival rate at 2 g/kg, ig; conditions: in vivo, po, 2000 mg/kg
[12] = Half life in Wistar rat at 5 mg/kg, po; format: ADME, organism-based; conditions: in vivo
[13] = Toxicity in healthy female mouse assessed as heart damage at 2 g/kg, ig monitored for 2 weeks by HE staining based assay; format: tissue-based; conditions: in vivo, po, 2000 mg/kg, 336 h
[14] = Metabolic stability in human liver microsomes assessed as intrinsic clearance per mg protein; format: ADME, Microsome; conditions: read-out: CLH
[15] = Acute toxicity in healthy female mouse assessed as behavioral abnormalities at 2 g/kg, ig measured for 2 weeks; conditions: in vivo, po, 2000 mg/kg, 336 h
[16] = Selectivity index, ratio of CC50 for cytotoxicity against human MT-4 cells to EC50 for inhibition of HIV-1 p66/51 reverse transcriptase Y181C mutant; format: toxicity, cell-based; conditions: read-out: Ratio CC50/EC50
[17] = Toxicity in healthy female mouse assessed as lung damage at 2 g/kg, ig monitored for 2 weeks by HE staining based assay; format: tissue-based; conditions: in vivo, po, 2000 mg/kg, 336 h
[18] = Metabolic stability in mouse liver microsomes assessed as half life; format: ADME, Microsome
[19] = Selectivity index, ratio of CC50 for cytotoxicity against human MT-4 cells to EC50 for inhibition of HIV-1 p66/51 reverse transcriptase K103N mutant; format: toxicity, cell-based; conditions: read-out: Ratio CC50/EC50
[20] = system: Human immunodeficiency virus type 1 reverse transcriptase (Human immunodeficiency virus 1), Q72547 [K103N]; assay: Potency index, ratio of NVP EC50 to test compound EC50 for inhibition of HIV-1 p66/p51 reverse transcriptase K103N mutant
[21] = Acute toxicity in pregnant mouse assessed as stillborn fetus at 2 g/kg, ig; conditions: in vivo, po, 2000 mg/kg
[22] = Toxicity in pregnant mouse assessed as heart damage at 2 g/kg, ig monitored for 2 weeks by HE staining based assay; format: tissue-based; conditions: in vivo, po, 2000 mg/kg, 336 h
[23] = Metabolic stability in rat liver microsomes assessed as intrinsic clearance per mg protein; format: ADME, Microsome
[24] = Acute toxicity in pregnant mouse assessed as abortion at 2 g/kg, ig; conditions: in vivo, po, 2000 mg/kg
[25] = Acute toxicity in pregnant mouse assessed as behavioral abnormalities at 2 g/kg, ig measured for 2 weeks; conditions: in vivo, po, 2000 mg/kg, 336 h
[26] = Toxicity in pregnant mouse assessed as brain damage at 2 g/kg, ig monitored for 2 weeks by HE staining based assay; format: tissue-based; conditions: in vivo, po, 2000 mg/kg, 336 h
[27] = molecular target: Human immunodeficiency virus type 1 reverse transcriptase (Human immunodeficiency virus 1, UniProt Q72547, K103N); assay: Inhibition of HIV-1 p66/p51 reverse transcriptase K103N mutant incubated for 40 mins by picogreen dye-based spectrofluorometric analysis
[28] = Selectivity index, ratio of CC50 for cytotoxicity against human MT-4 cells to EC50 for inhibition of HIV-1 p66/51 reverse transcriptase L100I mutant; format: toxicity, cell-based; conditions: read-out: Ratio CC50/EC50
[29] = Toxicity in pregnant mouse assessed as liver damage at 2 g/kg, ig monitored for 2 weeks by HE staining based assay; format: tissue-based; conditions: in vivo, po, 2000 mg/kg, 336 h
[30] = MRTinfinity in Wistar rat at 1 mg/kg, iv; format: ADME, organism-based; conditions: in vivo
[31] = Cytotoxicity against in human MT-4 cells after 5 days by MTT assay; format: cell-based, MT4; conditions: time 5 day
[32] = AUCinfinity in Wistar rat at 1 mg/kg, iv; format: ADME, organism-based; set-up: route intravenous, time infinity, dose 1 mg/kg; conditions: in vivo
[33] = Metabolic stability in mouse liver microsomes assessed as intrinsic clearance per mg protein; format: ADME, Microsome
[34] = Toxicity in pregnant mouse assessed as kidney damage at 2 g/kg, ig monitored for 2 weeks by HE staining based assay; format: tissue-based; conditions: in vivo, po, 2000 mg/kg, 336 h
[35] = molecular target: Human immunodeficiency virus type 1 reverse transcriptase (Human immunodeficiency virus 1, UniProt Q72547, Y181C); assay: Inhibition of HIV-1 p66/p51 reverse transcriptase Y181C mutant incubated for 40 mins by picogreen dye-based spectrofluorometric analysis
[36] = system: Human immunodeficiency virus type 1 reverse transcriptase (Human immunodeficiency virus 1), Q72547 [K103N]; assay: Potency index, ratio of EFV EC50 to test compound EC50 for inhibition of HIV-1 p66/p51 reverse transcriptase K103N mutant
[37] = MRTinfinity in Wistar rat at 5 mg/kg, po; format: ADME, organism-based; conditions: in vivo
[38] = AUCinfinity in Wistar rat at 5 mg/kg, po; format: ADME, organism-based; set-up: route oral, time infinity, dose 5 mg/kg; conditions: in vivo
[39] = Acute toxicity in pregnant mouse assessed as increase in body weight at 2 g/kg, ig; conditions: in vivo, po, 2000 mg/kg
[40] = Cmax in Wistar rat at 5 mg/kg, po; format: ADME, organism-based; set-up: route oral, dose 5 mg/kg; conditions: in vivo
[41] = Acute toxicity in healthy mouse assessed as death at 2 g/kg, ig; conditions: in vivo, po, 2000 mg/kg
[42] = Metabolic stability in rat liver microsomes; format: ADME, Microsome
[43] = Toxicity in healthy female mouse assessed as liver damage at 2 g/kg, ig monitored for 2 weeks by HE staining based assay; format: tissue-based; conditions: in vivo, po, 2000 mg/kg, 336 h
[44] = Metabolic stability in mouse liver microsomes; format: ADME, Microsome
[45] = Inhibition of HIV-1 p66/p51 reverse transcriptase E138K mutant incubated for 40 mins by picogreen dye-based spectrofluorometric analysis; set-up: species or system Human immunodeficiency virus 1
[46] = Toxicity in healthy female mouse assessed as brain damage at 2 g/kg, ig monitored for 2 weeks by HE staining based assay; format: tissue-based; conditions: in vivo, po, 2000 mg/kg, 336 h
[47] = Half life in Wistar rat at 1 mg/kg, iv; format: ADME, organism-based; conditions: in vivo
[48] = Selectivity index, ratio of CC50 for cytotoxicity against human MT-4 cells to EC50 for inhibition of HIV-1 p66/51 reverse transcriptase E138K mutant; format: toxicity, cell-based; conditions: read-out: Ratio CC50/EC50
[49] = system: Human immunodeficiency virus 1; assay: Antiviral activity against HIV-1 infected in human MT-4 cells assessed as reduction in virus-induced cytopathic effect incubated for 5 days by MTT assay; format: functional, organism-based; conditions: Human immunodeficiency virus 1, MT4, 120 h
[50] = Acute toxicity in healthy female mouse assessed as increase in body weight at 2 g/kg, ig; conditions: in vivo, po, 2000 mg/kg
[51] = Metabolic stability in human liver microsomes; format: ADME, Microsome
[52] = Metabolic stability in rat liver microsomes assessed as half life; format: ADME, Microsome
[53] = Toxicity in healthy female mouse assessed as kidney damage at 2 g/kg, ig monitored for 2 weeks by HE staining based assay; format: tissue-based; conditions: in vivo, po, 2000 mg/kg, 336 h
[54] = Selectivity index, ratio of CC50 for cytotoxicity against human MT-4 cells to EC50 for inhibition of HIV-1 p66/51 reverse transcriptase Y188L mutant; format: toxicity, cell-based; conditions: read-out: Ratio CC50/EC50
[55] = Inhibition of HIV-1 p66/p51 reverse transcriptase Y188L mutant incubated for 40 mins by picogreen dye-based spectrofluorometric analysis; set-up: species or system Human immunodeficiency virus 1

## Cc1cnc(Nc2ccc(C#N)cc2)nc1Nc1c(F)cc(-c2ccc(C#N)cc2)cc1F
[1]
  Tmax: 0.67 h
[2]
  selectivity ratio: > 208000
[3]
  EC50: 16.3 nM
[4]
  AUC: 115 ng·h/mL
[5]
  Activity: Non-Toxic
[6]
  IC50: 13 nM
[7]
  Activity: Non-Toxic
[8]
  Activity: Non-Toxic
[9]
  AUC: 1080 ng·h/mL
[10]
  Activity: Non-Toxic
[11]
  Activity: Non-Toxic
[12]
  half-life: 2.13 h
[13]
  Activity: Non-Toxic
[14]
  microsomal CLint: 5 µL/min/mg
[15]
  Activity: Non-Toxic
[16]
  selectivity ratio: > 25500
[17]
  Activity: Non-Toxic
[18]
  t1/2: 0.768 h
[19]
  selectivity ratio: > 53200
[20]
  Ratio EC50: 17
[21]
  Activity: Non-Toxic
[22]
  Activity: Non-Toxic
[23]
  CLH: 28.4 µL/min
[24]
  Activity: Non-Toxic
[25]
  Activity: Non-Toxic
[26]
  Activity: Non-Toxic
[27]
  EC50: 5.4 nM
[28]
  selectivity ratio: > 17500
[29]
  Activity: Non-Toxic
[30]
  MRT inf: 0.86 h
[31]
  CC50 at 120 h: > 285000 nM
[32]
  AUC(0-inf): 1090 ng·h/mL
[33]
  CLH: 30.1 µL/min
[34]
  Activity: Non-Toxic
[35]
  EC50: 11.2 nM
[36]
  Ratio EC50: 17
[37]
  MRT inf: 3.5 h
[38]
  AUC(0-inf): 130 ng·h/mL
[39]
  Activity: Toxic
[40]
  Cmax: 38.4 ng/mL
[41]
  Activity: Non-Toxic
[42]
  k el: 0.000237 s⁻¹
[43]
  Activity: Non-Toxic
[44]
  k el: 0.00025 s⁻¹
[45]
  EC50: 8.3 nM
[46]
  Activity: Non-Toxic
[47]
  half-life: 1.18 h
[48]
  selectivity ratio: > 34200
[49]
  EC50: 1 nM
[50]
  Activity: Toxic
[51]
  k el: 8.33e-05 s⁻¹
[52]
  t1/2: 0.815 h
[53]
  Activity: Non-Toxic

## Cc1cc(-c2ccc(C#N)cc2)cc(C)c1Nc1ccnc(Nc2ccc(C#N)cc2)n1
[51]
  k el: 0.000783 s⁻¹

## N#Cc1ccc(Nc2nccc(N(CCCO)c3c(F)cc(-c4ccc(C#N)cc4)cc3F)n2)cc1
[2]
  selectivity ratio: 10300
[3]
  EC50: 40.9 nM
[6]
  IC50: 30 nM
[16]
  selectivity ratio: 1980
[54]
  selectivity ratio: 84
[19]
  selectivity ratio: 1270
[27]
  EC50: 53.4 nM
[28]
  selectivity ratio: 1670
[31]
  CC50 at 120 h: 68000 nM
[35]
  EC50: 34.4 nM
[55]
  EC50: 813 nM
[45]
  EC50: 21.9 nM
[48]
  selectivity ratio: 3110
[49]
  EC50: 7 nM

## CCCN(c1ccnc(Nc2ccc(C#N)cc2)n1)c1c(F)cc(-c2ccc(C#N)cc2)cc1F
[2]
  selectivity ratio: 11300
[3]
  EC50: 95 nM
[6]
  IC50: 41 nM
[16]
  selectivity ratio: 3090
[54]
  selectivity ratio: 114
[19]
  selectivity ratio: 1960
[27]
  EC50: 108 nM
[28]
  selectivity ratio: 2240
[31]
  CC50 at 120 h: 212000 nM
[35]
  EC50: 69 nM
[55]
  EC50: 1860 nM
[45]
  EC50: 34.9 nM
[48]
  selectivity ratio: 6090
[49]
  EC50: 19 nM

## N#Cc1ccc(Nc2nccc(N(CCF)c3c(F)cc(-c4ccc(C#N)cc4)cc3F)n2)cc1
[2]
  selectivity ratio: 32400
[3]
  EC50: 84.2 nM
[6]
  IC50: 29 nM
[16]
  selectivity ratio: 4460
[54]
  selectivity ratio: 243
[19]
  selectivity ratio: 3190
[27]
  EC50: 73.5 nM
[28]
  selectivity ratio: 2790
[31]
  CC50 at 120 h: 235000 nM
[35]
  EC50: 52.7 nM
[55]
  EC50: 967 nM
[45]
  EC50: 28.6 nM
[48]
  selectivity ratio: 8200
[49]
  EC50: 7 nM

## COCN(c1ccnc(Nc2ccc(C#N)cc2)n1)c1c(F)cc(-c2ccc(C#N)cc2)cc1F
[2]
  selectivity ratio: 42800
[3]
  EC50: 36.5 nM
[6]
  IC50: 25 nM
[16]
  selectivity ratio: 4770
[54]
  selectivity ratio: 294
[19]
  selectivity ratio: 4630
[27]
  EC50: 51.4 nM
[28]
  selectivity ratio: 6510
[31]
  CC50 at 120 h: 238000 nM
[35]
  EC50: 49.9 nM
[55]
  EC50: 808 nM
[45]
  EC50: 35 nM
[48]
  selectivity ratio: 6780
[49]
  EC50: 6 nM
